According to the NIST ThermoML archive (doi:10.1021/je900697w):

How the values were obtained:
[1] = for surface tension liquid-gas: Ring tensiometer; for mass density: 101.33 kPa, Liquid
[2] = xn = mol fraction of the nth substance listed; conditions: for surface tension liquid-gas: Ring tensiometer; for mass density: 101 kPa, Liquid, Vibrating tube method
[3] = 101 kPa, Liquid mixture 1, Ring tensiometer

CCCCCC[n+]1ccn(C)c1.O=S(=O)([N-]S(=O)(=O)C(F)(F)F)C(F)(F)F
[1]
Conditions | mass density [kg/m3] | surface tension liquid-gas [mN/m]
283.1 K | 1385.4 | 31.2
298.15 K | 1370.7 | 30.8
323.15 K | 1348 | 28.9
348.15 K | 1324 | 27.6

C=CCCCCCC [oct-1-ene] + CCCCCC[n+]1ccn(C)c1.O=S(=O)([N-]S(=O)(=O)C(F)(F)F)C(F)(F)F
[2]
Conditions | mass density [kg/m3] | surface tension liquid-gas [mN/m]
283.1 K, x1 = 0.05 | 1372.1 | 30.9
283.1 K, x1 = 0.1 | 1356 | 29.8
283.1 K, x1 = 0.139 | 1340 | –
283.1 K, x1 = 0.15 | – | 27.8
283.1 K, x1 = 0.154 | 1340 | –
283.1 K, x1 = 0.16 | – | 27.7
283.1 K, x1 = 1 | – | 22.5
298.15 K, x1 = 0.05 | 1358 | 30.3
298.15 K, x1 = 0.1 | 1342 | 29.4
298.15 K, x1 = 0.139 | 1328 | –
298.15 K, x1 = 0.15 | – | 27.4
298.15 K, x1 = 0.154 | 1326 | –
298.15 K, x1 = 0.19 | – | 27
298.15 K, x1 = 1 | – | 21.2
323.15 K, x1 = 0.05 | 1336 | 28.8
323.15 K, x1 = 0.1 | 1319 | 28.7
323.15 K, x1 = 0.139 | 1306 | –
323.15 K, x1 = 0.15 | – | 26.6
323.15 K, x1 = 0.154 | 1303 | –
323.15 K, x1 = 0.23 | – | 25.5
323.15 K, x1 = 1 | – | 18.5
348.15 K, x1 = 0.05 | 1313 | 27.4
348.15 K, x1 = 0.1 | 1300 | 27.2
348.15 K, x1 = 0.139 | 1282 | –
348.15 K, x1 = 0.15 | – | 26.3
348.15 K, x1 = 0.154 | 1279 | –
348.15 K, x1 = 0.28 | – | 25.3
348.15 K, x1 = 1 | – | 15.7

[3]
Conditions | interfacial tension [mN/m]
283.1 K | 13.3
298.15 K | 13
323.15 K | 9.7
348.15 K | 4.4

C=CCCCCCC [oct-1-ene]
[1]
Conditions | surface tension liquid-gas [mN/m]
283.1 K | 22.5
298.15 K | 21.2
323.15 K | 18.5
348.15 K | 15.7

[1], Vibrating tube method
Conditions | mass density [kg/m3]
283.1 K | 723.5
298.15 K | 711.2
323.15 K | 690
348.15 K | 668

CCCCCC[n+]1ccn(C)c1.O=S(=O)([N-]S(=O)(=O)C(F)(F)F)C(F)(F)F + C=CCCCCCC
[2], x2 = 0
Conditions | mass density [kg/m3] | surface tension liquid-gas [mN/m]
283.1 K | 1385.4 | 31.2
298.15 K | 1370.7 | 30.8
323.15 K | 1348 | 28.9
348.15 K | 1324 | 27.6
